System: 624824-186-R-J2-PDC multicell spheroids, viability
Experiment: Anticancer human tumor 624824-186-R-J2-PDC patient-derived colon adenocarcinoma cell line growth inhibition [PI3K]
Details: for IC50: curve of first compound; for viability, T/C: stronger effect = lower value
Summary of the method: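 Multi-cell spheroids combine tumor cells with HUVEC and human MSCs, treated with targeted agents alone or with inavolisib, alpelisib, duvelisib or copanlisib. Concentrations fall in half-log steps from at or near clinical Cmax, or from 10 microM where Cmax is unknown; viability read-out.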

[1] = second compound 0.00316 µM, first compound 0.0316 µM
[2] = second compound 0.00316 µM, first compound 0.1 µM
[3] = second compound 0.00316 µM, first compound 0.316 µM
[4] = second compound 0.00316 µM, first compound 1 µM
[5] = second compound 0.00316 µM, first compound 3.16 µM
[6] = second compound 0.00316 µM, first compound 10 µM
[7] = second compound 0.01 µM, first compound 0.0316 µM
[8] = second compound 0.01 µM, first compound 0.1 µM
[9] = second compound 0.01 µM, first compound 0.316 µM
[10] = second compound 0.01 µM, first compound 1 µM
[11] = second compound 0.01 µM, first compound 3.16 µM
[12] = second compound 0.01 µM, first compound 10 µM
[13] = second compound 0.0316 µM, first compound 0.0316 µM
[14] = second compound 0.0316 µM, first compound 0.1 µM
[15] = second compound 0.0316 µM, first compound 0.316 µM
[16] = second compound 0.0316 µM, first compound 1 µM
[17] = second compound 0.0316 µM, first compound 3.16 µM
[18] = second compound 0.0316 µM, first compound 10 µM
[19] = second compound 0.1 µM, first compound 0.0316 µM
[20] = second compound 0.1 µM, first compound 0.1 µM
[21] = second compound 0.1 µM, first compound 0.316 µM
[22] = second compound 0.1 µM, first compound 1 µM
[23] = second compound 0.1 µM, first compound 3.16 µM
[24] = second compound 0.1 µM, first compound 10 µM
[25] = second compound 0.316 µM, first compound 0.0316 µM
[26] = second compound 0.316 µM, first compound 0.1 µM
[27] = second compound 0.316 µM, first compound 0.316 µM
[28] = second compound 0.316 µM, first compound 1 µM
[29] = second compound 0.316 µM, first compound 3.16 µM
[30] = second compound 0.316 µM, first compound 10 µM
[31] = second compound 1 µM, first compound 0.0316 µM
[32] = second compound 1 µM, first compound 0.1 µM
[33] = second compound 1 µM, first compound 0.316 µM
[34] = second compound 1 µM, first compound 1 µM
[35] = second compound 1 µM, first compound 3.16 µM
[36] = second compound 1 µM, first compound 10 µM
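Also: spheroids exposed to agents for 7 days before viability read.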
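For viability, T/C in this document: 100% = DMSO vehicle treated spheroids.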

CC1(C)CCC(CN2CCN(c3ccc(C(=O)NS(=O)(=O)c4ccc(NCC5CCOCC5)c([N+](=O)[O-])c4)c(Oc4cnc5[nH]ccc5c4)c3)CC2)=C(c2ccc(Cl)cc2)C1 + COc1c(OCCCN2CCOCC2)ccc2c3n(c(=NC(=O)c4cnc(N)nc4)nc12)CCN3
IC50 (second compound 0.00316 µM): > 10000 nM | IC50 (second compound 0.01 µM): > 10000 nM | IC50 (second compound 0.0316 µM): > 10000 nM | IC50 (second compound 0.1 µM): 6810 nM | IC50 (second compound 0.316 µM): 4680 nM | IC50 (second compound 1 µM): 4700 nM | viability, T/C [1]: 78.7% | viability, T/C [2]: 82.4% | viability, T/C [3]: 81.6% | viability, T/C [4]: 98% | viability, T/C [5]: 70.5% | viability, T/C [6]: 61% | viability, T/C [7]: 99% | viability, T/C [8]: 83.5% | viability, T/C [9]: 83.1% | viability, T/C [10]: 94.9% | viability, T/C [11]: 78.2% | viability, T/C [12]: 57.5% | viability, T/C [13]: 84.3% | viability, T/C [14]: 90.5% | viability, T/C [15]: 82.6% | viability, T/C [16]: 90.7% | viability, T/C [17]: 78.7% | viability, T/C [18]: 50.2% | viability, T/C [19]: 69% | viability, T/C [20]: 76.8% | viability, T/C [21]: 84.8% | viability, T/C [22]: 78.4% | viability, T/C [23]: 73.1% | viability, T/C [24]: 38.2% | viability, T/C [25]: 60% | viability, T/C [26]: 65.7% | viability, T/C [27]: 72.1% | viability, T/C [28]: 67.9% | viability, T/C [29]: 60.5% | viability, T/C [30]: 28.2% | viability, T/C [31]: 64.7% | viability, T/C [32]: 62.3% | viability, T/C [33]: 63.2% | viability, T/C [34]: 61.4% | viability, T/C [35]: 64.7% | viability, T/C [36]: 24.8%

C[C@@H](NC(=O)c1ncnc(N)c1Cl)c1ncc(C(=O)Nc2cc(C(F)(F)F)c(Cl)cn2)s1 + COc1c(OCCCN2CCOCC2)ccc2c3n(c(=NC(=O)c4cnc(N)nc4)nc12)CCN3
IC50 (second compound 0.00316 µM): > 10000 nM | IC50 (second compound 0.01 µM): > 10000 nM | IC50 (second compound 0.0316 µM): > 10000 nM | IC50 (second compound 0.1 µM): 1020 nM | IC50 (second compound 0.316 µM): 505 nM | IC50 (second compound 1 µM): 511 nM | viability, T/C [1]: 106% | viability, T/C [2]: 112% | viability, T/C [3]: 93.5% | viability, T/C [4]: 84.4% | viability, T/C [5]: 62.2% | viability, T/C [6]: 65.2% | viability, T/C [7]: 95.5% | viability, T/C [8]: 119% | viability, T/C [9]: 106% | viability, T/C [10]: 70.1% | viability, T/C [11]: 61.6% | viability, T/C [12]: 62.6% | viability, T/C [13]: 91.3% | viability, T/C [14]: 93% | viability, T/C [15]: 88.9% | viability, T/C [16]: 63.9% | viability, T/C [17]: 63.4% | viability, T/C [18]: 48% | viability, T/C [19]: 88.7% | viability, T/C [20]: 73.9% | viability, T/C [21]: 64.6% | viability, T/C [22]: 50.2% | viability, T/C [23]: 38.7% | viability, T/C [24]: 33.1% | viability, T/C [25]: 77.2% | viability, T/C [26]: 59.9% | viability, T/C [27]: 55.7% | viability, T/C [28]: 46.4% | viability, T/C [29]: 33.8% | viability, T/C [30]: 28.9% | viability, T/C [31]: 62.4% | viability, T/C [32]: 63.4% | viability, T/C [33]: 52.1% | viability, T/C [34]: 42.5% | viability, T/C [35]: 39.2% | viability, T/C [36]: 26.1%

Cn1ncnc1[C@H]1c2n[nH]c(=O)c3cc(F)cc(c23)N[C@@H]1c1ccc(F)cc1 + COc1c(OCCCN2CCOCC2)ccc2c3n(c(=NC(=O)c4cnc(N)nc4)nc12)CCN3
IC50 (second compound 0.00316 µM): > 100 nM | IC50 (second compound 0.01 µM): > 100 nM | IC50 (second compound 0.0316 µM): > 100 nM | IC50 (second compound 0.1 µM): > 100 nM | IC50 (second compound 0.316 µM): > 100 nM | IC50 (second compound 1 µM): > 100 nM | viability, T/C (second compound 0.00316 µM, first compound 0.000316 µM): 93.9% | viability, T/C (second compound 0.00316 µM, first compound 0.001 µM): 83.3% | viability, T/C (second compound 0.00316 µM, first compound 0.00316 µM): 96.7% | viability, T/C (second compound 0.00316 µM, first compound 0.01 µM): 72% | viability, T/C [1]: 88.8% | viability, T/C [2]: 78.4% | viability, T/C (second compound 0.01 µM, first compound 0.000316 µM): 94.2% | viability, T/C (second compound 0.01 µM, first compound 0.001 µM): 81.2% | viability, T/C (second compound 0.01 µM, first compound 0.00316 µM): 79.8% | viability, T/C (second compound 0.01 µM, first compound 0.01 µM): 84.5% | viability, T/C [7]: 93.3% | viability, T/C [8]: 77.7% | viability, T/C (second compound 0.0316 µM, first compound 0.000316 µM): 90.2% | viability, T/C (second compound 0.0316 µM, first compound 0.001 µM): 81.9% | viability, T/C (second compound 0.0316 µM, first compound 0.00316 µM): 84.1% | viability, T/C (second compound 0.0316 µM, first compound 0.01 µM): 83.1% | viability, T/C [13]: 88% | viability, T/C [14]: 95.6% | viability, T/C (second compound 0.1 µM, first compound 0.000316 µM): 72.2% | viability, T/C (second compound 0.1 µM, first compound 0.001 µM): 77.4% | viability, T/C (second compound 0.1 µM, first compound 0.00316 µM): 70.6% | viability, T/C (second compound 0.1 µM, first compound 0.01 µM): 73.7% | viability, T/C [19]: 84.9% | viability, T/C [20]: 76.8% | viability, T/C (second compound 0.316 µM, first compound 0.000316 µM): 71.1% | viability, T/C (second compound 0.316 µM, first compound 0.001 µM): 65.2% | viability, T/C (second compound 0.316 µM, first compound 0.00316 µM): 61.7% | viability, T/C (second compound 0.316 µM, first compound 0.01 µM): 62.6% | viability, T/C [25]: 76.3% | viability, T/C [26]: 60.9% | viability, T/C (second compound 1 µM, first compound 0.000316 µM): 55.7% | viability, T/C (second compound 1 µM, first compound 0.001 µM): 50.2% | viability, T/C (second compound 1 µM, first compound 0.00316 µM): 55.9% | viability, T/C (second compound 1 µM, first compound 0.01 µM): 56.6% | viability, T/C [31]: 63.6% | viability, T/C [32]: 60.8%
